# According to paper PMC9861386, “N-Heterocyclic Carbene-Iridium Complexes as Photosensitizers for In Vitro Photodynamic Therapy to Trigger Non-Apoptotic Cell Death in Cancer Cells” (Molecules, 2023):
# How the values were obtained:
# Assay type in all cases: cell-based, human
# MCF7/FasR cells = assay: Cell death with or without pan-caspase inhibitor z-VAD-fmk, MTT; conditions: TNFα 100 ng/mL, 72 h, MCF7/FasR, MTT
# Description: To determine the mechanism of cell death, we used MCF7 cells transfected to express the human Fas receptor (FasR) or doubly transfected to express the human Fas receptor and human Bcl-xL [75]. Since MCF7 cells express the TNF receptor endogenously, this allowed the study of both Fas- and TNFα-mediated apoptosis in the same cell model to assess whether cell death was dependent on the Bcl-2 family of mitochondrial proteins such as Bcl-xL. […] This is consistent with findings that death receptors such as FasR and TNFR can mediate apoptosis through both the extrinsic pathway (mitochondria-independent by directly activating executioner caspases via upstream caspase-8) and the intrinsic (mitochondrial) pathway controlled by the Bcl-2 family of proteins.
# We next evaluated the effect of the pan-caspase inhibitor z-VAD-fmk on caspase signaling. As expected, the treatment with z-VAD-fmk rendered MCF7/FasR cells resistant to TNFα-induced PARP and caspase-7 processing (Figure 14A) and to the loss of cell viability (Figure 14B).
# (§1) A tetrazolium-based MTT reagent (3-(4,5-dimethylthiazol-2-yl)-2,5-diphenyltetrazolium bromide) was used to determine cell viability, as previously described. After 72 h of treatment at 37 °C and 5% CO2, cells were incubated with 25 μL MTT solution (5 mg/mL; Sigma-Aldrich) for 4 h. After solubilization with 500 μL of lysis buffer (DMSO), formazan was quantified by spectrophotometry with a microplate reader at 570 nm absorbance (ClarioSTAR, BMG LabTech, Champigny-sur-Marne, France). […] All results were calculated from data obtained in at least three independent experiments.
# Figure 11 Bcl-xL and z-VAD-fmk inhibited by Fas- or TNFα-induced cell death in MCF7 cells. […] Cell death was assessed by MTT assay. […]
# Figure 14 Evaluation of apoptotic biomarkers. […] (B) Cell viability was evaluated in duplicate samples. Data are expressed as percent (%) of untreated cells and are the means of 3 independent experiments (***, p < 0.0001, NS, not significant).
# [1] = tested on: MCF7/FasR and MCF7/FasR/Bcl-xL cells; assay: Bcl-xL dependence of cell death, MTT in MCF7/FasR vs MCF7/FasR/Bcl-xL; conditions: complexes: 458 nm irradiation, 10 nM to 1 µM, TNFα 100 ng/mL, 72 h
# Description: To determine the mechanism of cell death, we used MCF7 cells transfected to express the human Fas receptor (FasR) or doubly transfected to express the human Fas receptor and human Bcl-xL [75]. Since MCF7 cells express the TNF receptor endogenously, this allowed the study of both Fas- and TNFα-mediated apoptosis in the same cell model to assess whether cell death was dependent on the Bcl-2 family of mitochondrial proteins such as Bcl-xL. […]
# Mitochondrial outer membrane permeabilization (MOMP), which leads to rapid cell death through the release of mitochondrial proteins (including cytochrome c) that activate executioner caspases, is the critical event in intrinsic apoptosis. […] We then assessed whether the cell death induced by our complexes could be abrogated by the overexpression of Bcl-xL.
# as §1, with “After 72 h of treatment at 37 °C and 5% CO2, cells were incubated with 25 μL MTT solution (5 mg/mL; Sigma-Aldrich) for 4 h.” left out, “experiments. […]” for “experiments.”
# Figure 13 Evaluation of apoptotic biomarkers. […] (B) MTT, ATP and GSH assays were evaluated in duplicate samples. […]
# [2] = tested on: MCF7/FasR and MCF7/FasR/Bcl-xL cells; assay: GSH quantification (GSH-Glo); conditions: complex 4a all doses with 458 nm irradiation; TNFα 100 ng/mL; 72 h
# Method: ATP and glutathione (GSH) contents were measured with the Promega CellTiter-Glo (Cat#G7570) and GSH-Glo (cat#6911) luminescent assays, respectively, according to the manufacturer’s recommendations.
# Figure 13 Evaluation of apoptotic biomarkers. MCF7/FasR and MCF7/FasR/Bcl-xL cells were irradiated at 458 nm in presence of the indicated concentration of complex 4a or treated with […] TNFα for 72 h. (A) Cytosolic extracts from MCF7/FasR and MCF7/FasR/Bcl-xL cells were separated by SDS-PAGE and probed with anti-PARP, anti-caspase-7 and anti-caspase-8. Migrations indicated are: full-length PARP p113, cleaved PARP p89, full-length caspase-7 and full-length caspase-8. (B) MTT, ATP and GSH assays were evaluated in duplicate samples. Data are expressed as percent (%) of untreated cells and are the means of 3 independent experiments (***, p < 0.0001, NS, not significant).
substance,measurement,setting,value
TNFα,reduction in cell viability,MCF7/FasR cells,65–85%
same,effect of Bcl-xL overexpression on loss of cell viability,[1],strongly inhibited by Bcl-xL
same,level of reduced GSH,[2],decreased
